Test system: Peripheral blood mononuclear cells (PBMC) from HPA-1b1b women
Test: T-cell proliferation assay (3H-thymidine incorporation) of PBMC stimulated with HPA-1a/1b 15-mer peptides, HPA-1b1b women
Format: cell-based, human
Conditions: peptide 20 μg/mL; for immunodominance in stimulating specific T-cell responses in vitro: HPA-1a alloimmunised HPA-1b1b women; for strength of PBMC proliferative response (in words): HPA-1b1b women
Procedure: The cells were stimulated with a panel of 15-mer peptides corresponding to the sequences of the HPA-1a and 1b alloantigens containing Leu33 and Pro33 respectively (see FIG. 1). Two categories of control donors were utilised; 1 HPA-1b1b unimmunised donor and 11 HPA-1a randomly selected female donors. Testing of both patients and controls was carried out in cell culture conditions designed to favour proliferation by previously activated T-cells, rather than primary responses.
The human platelet membrane GPIIIa amino acid sequence reported by Frachet et al Mol. Biol. Rep. 1990, vol 14, 27-33 (genebank accession no: M35999) was used as the basis for production of the HPA-1a and HPA-1b GPIIIa synthetic peptides. Two panels of 15-mer peptides were synthesised corresponding to the sequences of the HPA-1 polymorphic region, with either the Leu-33 or Pro-33 at each possible position (see FIG. 1). One set of the 15-mer peptides contained the leucine polymorphism and the other set of 15 contained the proline polymorphism. To ensure purity each panel was synthesized by f-moc chemistry. The peptides were reconstituted to a concentration of 2.0 mg/ml and used for stimulation of PBMC at 20 μg/mL in culture.
Mononuclear cells were recovered from samples of peripheral blood of all patients and control donors by density gradient centrifugation technique (Lymphoprep; Nycomed, Denmark) according to the manufacturer's instructions. The cells were then manually counted by hemocytometer.
Peripheral blood mononuclear cells were cultured at a concentration of 1.25×10^6 cells per mL in Alpha Modification of Eagle's Medium (Sigma Diagnostic, St. Louis, Mo., USA.) supplemented with 4 mmol/l L-glutamine (Gibco, Paisley, UK), 100 μg/ml streptomycin sulphate (Sigma Diagnostic, St. Louis, Mo., USA), 100 u/mL sodium benzylpenicillin G (Sigma Diagnostic, St. Louis, Mo., USA), 20 mmol/L HEPES, PH 7.2 (Sigma Diagnostic, St. Louis, Mo., USA) and 5% autologous serum or AB serum. Twelve microlitres of synthetic HPA-1a/1b peptides and control antigens (PPD, KLH and ConA) were each added to appropriate wells of the microtitre plates before the cell culture suspension was layered. The culture plates were incubated at 37° C. in a humidified atmosphere of 95% air and 5% CO2 for 5 days. T-cell proliferation in cultures was estimated from the incorporation of ^3H-thymidine in triplicate 100 μL samples withdrawn from the plates 5 days after stimulation. T-cell proliferation results were presented either as the mean counts per minute (CPM)±SD of the triplicate samples or as a stimulation index (SI) expressing the ratio of mean CPM in stimulated versus unstimulated control cultures. A SI >3 was interpreted as representing a positive response.

Row | Substance | immunodominance in stimulating specific T-cell responses in vitro | percentage of HPA-1a alloimmunised HPA-1b1b women in whom the peptide elicited proliferation of T-cells (5 days, SI >3 = positive response, 14 alloimmunised women) | strength of PBMC proliferative response (in words) (5 days)
1 | SEQ ID No:1: 15-mer synthetic HPA-1a (Leu-33) GPIIIa peptide, polymorphism in the C-terminal part of the peptide (VSPMCAWCSDEALPL; listed as Homo sapiens) | immunodominant | approximately 50% | 
2 | SEQ ID No:2: 15-mer synthetic HPA-1a (Leu-33) GPIIIa peptide, polymorphism in the C-terminal part of the peptide (SPMCAWCSDEALPLG; listed as Homo sapiens) | immunodominant |  | 
3 | SEQ ID No:3: 15-mer synthetic HPA-1a (Leu-33) GPIIIa peptide, polymorphism in the C-terminal part of the peptide (PMCAWCSDEALPLGS; listed as Homo sapiens) | immunodominant |  | 
4 | SEQ ID No:4: 15-mer synthetic HPA-1a (Leu-33) GPIIIa peptide, polymorphism in the C-terminal part of the peptide (MCAWCSDEALPLGSP; listed as Homo sapiens) | immunodominant |  | 
5 | SEQ ID No:5: 15-mer synthetic HPA-1a (Leu-33) GPIIIa peptide, polymorphism in the C-terminal part of the peptide (CAWCSDEALPLGSPR; listed as Homo sapiens) | immunodominant |  | 
6 | SEQ ID No:6: 15-mer synthetic HPA-1a (Leu-33) GPIIIa peptide, polymorphism in the C-terminal part of the peptide (AWCSDEALPLGSPRC; listed as Homo sapiens) | immunodominant |  | strong responses in particular individuals
7 | SEQ ID No:7: 15-mer synthetic HPA-1a (Leu-33) GPIIIa peptide, polymorphism in the C-terminal part of the peptide (WCSDEALPLGSPRCD; listed as Homo sapiens) | immunodominant |  | strong responses in particular individuals
